Assay results as given in ChEMBL document CHEMBL1145230, “Syntheses of 2,4,6-trisubstituted pyrimidine derivatives as a new class of antifilarial topoisomerase II inhibitors” (Bioorg Med Chem Lett, 2005).
Active and inactive are the calls of the source. The rule behind the calls is not given here.

Tests used:
Type in all cases: functional
[1] = system: Setaria cervi; assay: Percent inhibition of filarial parasite Setaria cervi by compound at 5 ug/mL concentration; NI = no inhibition
[2] = system: Setaria cervi; assay: Percent inhibition of filarial parasite Setaria cervi by compound at 40 ug/mL concentration
[3] = system: Setaria cervi; assay: Percent inhibition of filarial parasite Setaria cervi by compound at 10 ug/mL concentration; NI = no inhibition
[4] = system: Setaria cervi; assay: Percent inhibition of filarial parasite Setaria cervi by compound at 20 ug/mL concentration
[5] = system: Setaria cervi; assay: Percent inhibition of filarial parasite Setaria cervi by compound at 10 ug/mL concentration
[6] = system: Setaria cervi; assay: Percent inhibition of filarial parasite Setaria cervi by compound at 5 ug/mL concentration

SMILES | inhibition [1] | inhibition [2] [%] | inhibition [3] | inhibition [4] [%] | inhibition [5] [%] | inhibition [6] [%]
CCN(CC)C(=O)N1CCN(C)CC1 | inactive | 45 | inactive | 10 | – | –
Nc1nc(NCCO)cc(-c2cccs2)n1 | inactive | 60 | inactive | 60 | – | –
Nc1nc(NCCCN2CCOCC2)cc(-c2cccs2)n1 | – | 80 | – | 80 | 80 | 60
Nc1nc(NCCN2CCOCC2)cc(-c2cccs2)n1 | inactive | 80 | – | 80 | 80 | –
CO[C@@H]1[C@@H](OC(N)=O)[C@@H](O)[C@H](Oc2ccc3c(O)c(NC(=O)c4ccc(O)c(CC=C(C)C)c4)c(=O)oc3c2C)OC1(C)C | inactive | 80 | – | 20 | 10 | –
CCn1cc(C(=O)O)c(=O)c2ccc(C)nc21 | inactive | 80 | – | 40 | 20 | –
Nc1ccc(-c2nc(NCCCN3CCOCC3)cc(-c3cccs3)n2)cc1 | – | 70 | – | 70 | 70 | 40
CN1CCN(c2cc(-c3cccs3)nc(N)n2)CC1 | – | 80 | – | 80 | 80 | 60
CCCNc1cc(-c2cccs2)nc(N)n1 | inactive | 60 | inactive | 60 | – | –
CN1CCN(c2cc(-c3cccs3)nc(-c3ccc(N)cc3)n2)CC1 | – | 80 | – | 80 | 80 | 25
